Test [1] concerns alkaline phosphatase (ALP). Nature of the test: cells. The note with it: Mus musculus, C2C12, 96 h.
Source text: (§1) To identify small-molecule activators of osteoblast differentiation, we measured ALP activity using a fluorescent emission assay as a reporter for enzymatic digestion of ALP substrate in lysates derived from C2C12 myoblasts. […] Therefore, before screening, the assay was calibrated using recombinant human BMP4 protein as a positive control. Compounds were robotically deposited onto 384-well plates and then overlaid by C2C12 cells for a 4-day culture period, followed by lysis and fluorescent substrate assays (FIG. 1A; Table 1). To ensure uniformity, C2C12 cells were maintained in normal culture medium containing 10% fetal bovine serum, and lysis and substrate addition achieved using a microplate multidrop device. The primary screen (Table 2) encompassed greater than 47,000 small molecules tested at a final concentration of 10 μM.
(§2) For the primary screen, library compounds were distributed onto 384-well microplates (Greiner Bio-One 781091) at a final concentration of 10 μM in culture medium using a Perkin Elmer Janus automated workstation and WinPrep Version 4.8.3.315. Positive (rhBMP4, 1 ng/ml, R&D Systems) and negative controls (DMSO, 0.2%) were manually added to each plate by multichannel pipet. C2C12 cells were seeded onto compounds and controls at a density of 2000/well using a Thermo Multidrop Combi reagent dispenser and cultured for 4 days at 37° C., 5% CO2. Culture medium was aspirated using a BioTek EL406 plate washer and cells were lysed in RIPA buffer (Millipore 20-188) at ambient temperature for 10 minutes. 10 μl fluorescent alkaline phosphatase substrate (AttoPhos, Promega S1000) was added to lysates and incubated an additional 10 minutes before measuring the fluorescence (Excitation 450 nm/Emission 580 nm) on a BioTek Synergy Neo2 stacking microplate reader. Plates were processed and relative fluorescence raw values measured in stacks of 10-20. The data were processed using Collaborative Drug Discovery web-based software (CDD Vault) to determine Z score calculated on DMSO control wells and percent activation normalized against positive and negative controls (NPA). Cherry-picked hit candidates were re-tested in concentration response experiments, from which 4 candidates were chosen and purchased for further testing from either ChemBridge or Enamine, based on availability.
(§3) We also purchased a library of 154 structural chemical analogs assembled by ChemBridge Corp. from available screening library compounds.
In test [2] the test system is alkaline phosphatase (ALP). The conditions noted are these: 154-analog library, 10 μM, C2C12, duplicate.
Source text: as §1, §2, §3

The text below walks through data of patent publication US11478466B2, “Small molecule promoting osteoblast differentiation” (Cornell University, priority 2019, dated 2022).

The structures appear in SMILES notation.

In test [1], `CCC(C)Sc1ccc(-c2[nH]cnc2-c2ccccc2)cn1` (stereo not shown) [RU-0424478] displayed an activation at 10 µM of 2.79%. The “RFU Score (10 μM)” value in test [2] came out at 361.
Take `CCN(CCN(C)C)C(=O)c1cccc(-c2[nH]cnc2-c2ccccc2)c1` [RU-0424479]: the activation at 10 µM in test [1] turned out to be 8.57%. The “RFU Score (10 μM)” value in test [2] turned out to be 525.
The matching figures for `CC(C)(O)C#Cc1ccc(-c2[nH]cnc2-c2ccccc2)cc1` [RU-0424480]: 10.4% and 575.
The matching figures for `O=C(O)Cc1cc(C2CCN(C(=O)c3[nH]cnc3-c3ccccc3)CC2)[nH]n1` [RU-0424481]: 8.62% and 526.
The matching figures for `COc1cccc(-c2[nH]cnc2-c2ccccc2)c1OCCCn1ccnc1` [RU-0424482]: 10.1% and 567.
On to `CO[C@@H]1CCOC[C@H]1NC(=O)c1[nH]cnc1-c1ccccc1` [RU-0424483], for which the activation at 10 µM in test [1] stood at 7.37%. Also, the “RFU Score (10 μM)” value in test [2] is on record as 491.
The matching figures for `Cc1nc(C2CCCN(C(=O)c3[nH]cnc3-c3ccccc3)C2)no1` (stereo not shown) [RU-0424484]: 1.72% and 330.
In test [1], `CCc1cn[nH]c1C1CCN(C(=O)c2[nH]cnc2-c2ccccc2)CC1` [RU-0424485] displayed an activation at 10 µM of 8.24%. Also, the “RFU Score (10 μM)” value in test [2] was 515.
The matching figures for `O=C(O)C1CN(C(=O)c2[nH]cnc2-c2ccccc2)CCN1` (stereo not shown) [RU-0424486]: 5.51% and 438.
The matching figures for `Cc1cc(C)c2[nH]c(=O)c(CN(Cc3cccnc3)C3CC3)cc2c1` [RU-0424487]: 7.72% and 501.
The matching figures for `Cc1cc(C)c2[nH]c(=O)c(CN3CCc4[nH]cnc4C3C(=O)O)cc2c1` (stereo not shown) [RU-0424488]: 6.37% and 462.
Take `O=C(c1[nH]cnc1-c1ccccc1)N1CCC(Cc2cccnc2)CC1` [RU-0424489]: the activation at 10 µM in test [1] turned out to be 9.48%. Besides, the “RFU Score (10 μM)” value in test [2] is listed as 551.
The molecule `O=C(N[C@H]1CC[C@H]1NC1CCOCC1)c1[nH]cnc1-c1ccccc1` [RU-0424490] had an activation at 10 µM in test [1] of 5.91%. For the same molecule, in test [2], the “RFU Score (10 μM)” value is listed as 449.
The matching figures for `Cc1cc(C)c2[nH]c(=O)c(CN3C[C@@H]4CCN(C)[C@@H]4C3)cc2c1` [RU-0424491]: 7.63% and 498.
The matching figures for `Cc1cc(C)c2[nH]c(=O)c(-c3nccn3CCSc3cnn[nH]3)cc2c1` [RU-0424492]: 6.11% and 455.
`CC1(C#N)CCN(C(=O)c2ccc(-c3[nH]cnc3-c3ccccc3)cc2)CC1` [RU-0424493]: the activation at 10 µM in test [1] was found to be 9.53%. The “RFU Score (10 μM)” value in test [2] amounted to 551.
`COCC1(N(C)C(=O)c2ccc(-c3[nH]cnc3-c3ccccc3)cc2)CC1` [RU-0424494] returned an activation at 10 µM in test [1] of 7.74%. Besides, in test [2], the “RFU Score (10 μM)” value is recorded as 501.
The matching figures for `Cc1cc(C)c2[nH]c(=O)c(CN3[C@@H]4CC[C@H]3C[C@@H](O)C4)cc2c1` [RU-0424495]: 7.21% and 486.
The matching figures for `Cc1ccnc(CC(C)N(C)Cc2cc3cc(C)cc(C)c3[nH]c2=O)c1` (stereo not shown) [RU-0424496]: 8.27% and 516.
Turning to `O=C(O)CNc1cc(-c2[nH]cnc2-c2ccccc2)c2cc[nH]c2n1` [RU-0424497], the activation at 10 µM in test [1] was found to be 5.93%. Moreover, the “RFU Score (10 μM)” value in test [2] is 450.
`Cc1cc(C)c2[nH]c(=O)c(CN(C)CCn3ccnc3C)cc2c1` [RU-0424498]: the activation at 10 µM in test [1] is 7.21%. The “RFU Score (10 μM)” value in test [2] amounted to 486.
The matching figures for `Cc1cc(C)c2[nH]c(=O)c(CN3CC(c4ccccn4)C3)cc2c1` [RU-0424499]: 7.62% and 498.
The matching figures for `Cc1cc(C)c2[nH]c(=O)c(CN3CCC(O)(CN(C)C)C3)cc2c1` (stereo not shown) [RU-0424500]: 8.52% and 523.
Consider `Cc1cc(C)c2[nH]c(=O)c(CN3C[C@H](O)C[C@H]3C(=O)O)cc2c1` [RU-0424501], for which the activation at 10 µM in test [1] worked out at 7.25%. The “RFU Score (10 μM)” value in test [2] was determined as 487.
In test [1], `COCCCN1CCN(Cc2cc3cc(C)cc(C)c3[nH]c2=O)CC1` [RU-0424502] had an activation at 10 µM of 7.78%. Also, the “RFU Score (10 μM)” value in test [2] is reported as 502.
`CO[C@@H]1CC[C@@]2(OC)CCN(C(=O)c3[nH]cnc3-c3ccccc3)[C@H]2C1` [RU-0424503] came in with an activation at 10 µM in test [1] of 5.45%. For the same molecule, the “RFU Score (10 μM)” value in test [2] was determined as 436.
The matching figures for `N#Cc1ccccc1-c1ccc(-c2[nH]cnc2-c2ccccc2)o1` [RU-0424504]: 0.96% and 309.
In turn, `O=C(c1[nH]cnc1-c1ccccc1)N1CCc2onc(-c3cccc(F)c3)c2C1` [RU-0424505] displayed an activation at 10 µM in test [1] of 1.56%. Besides, in test [2], the “RFU Score (10 μM)” value is 326.
`Cc1cc(C)c2[nH]c(=O)c(CN3CCCC(N(C)C)CC3)cc2c1` (stereo not shown) [RU-0424506]: the activation at 10 µM in test [1] came out at 2.9%. For the same molecule, in test [2], the “RFU Score (10 μM)” value is given as 364.
The matching figures for `O=C(c1[nH]cnc1-c1ccccc1)N1CCC2(CCCO2)CC1` [RU-0424507]: 2.99% and 366.
Molecule `Cc1cc(C)c2[nH]c(=O)c(CN(C)C(C)C(=O)N(C)C)cc2c1` (stereo not shown) [RU-0424508] showed an activation at 10 µM in test [1] of 7.85%. Besides, the “RFU Score (10 μM)” value in test [2] came to 504.
The matching figures for `Cc1cc(C)c2[nH]c(=O)c(CN(C)CCCn3cccn3)cc2c1` [RU-0424509]: 7.19% and 486.
The matching figures for `Cc1cc(C)c2[nH]c(=O)c(CN(C)Cc3cnccn3)cc2c1` [RU-0424510]: 7.14% and 484.
The matching figures for `Nc1nnc(C2CCN(C(=O)c3[nH]cnc3-c3ccccc3)CC2)[nH]1` [RU-0424511]: 6.54% and 467.
In test [1], `O=C(c1[nH]cnc1-c1ccccc1)N1CCOC(C(F)(F)F)C1` (stereo not shown) [RU-0424512] showed an activation at 10 µM of 6.12%. Besides, the “RFU Score (10 μM)” value in test [2] was found to be 455.
The matching figures for `CO[C@@]12CC[C@H](O)C[C@@H]1N(C(=O)c1[nH]cnc1-c1ccccc1)CC2` [RU-0424513]: 5.42% and 435.
Consider `CCCn1cc(NC(=O)Cn2cc(-c3[nH]cnc3-c3ccccc3)cn2)nn1` [RU-0424514], for which, in test [1], the activation at 10 µM is 3.69%. In addition, in test [2], the “RFU Score (10 μM)” value is given as 386.
The matching figures for `Cc1cc(C)c2[nH]c(=O)c(CN(C)CCc3cnn(C)c3)cc2c1` [RU-0424515]: 1.16% and 314.
With `O=C(c1[nH]cnc1-c1ccccc1)N1CCCC(c2ccncn2)C1` (stereo not shown) [RU-0424516], the activation at 10 µM in test [1] is 3.89%. For the same molecule, the “RFU Score (10 μM)” value in test [2] turned out to be 392.
The matching figures for `CNC(=O)[C@@H]1C[C@H](N)CN1Cc1cc2cc(C)cc(C)c2[nH]c1=O` [RU-0424517]: 8.64% and 527.
The matching figures for `Cc1cc(C)c2[nH]c(=O)c(-c3nccn3Cc3ccco3)cc2c1` [RU-0424518]: 7.14% and 484.
The matching figures for `O=C(NCc1nc(-c2cnccn2)n[nH]1)c1[nH]cnc1-c1ccccc1` [RU-0424519]: 9.84% and 561.
The molecule `CNC(=O)CC1C(=O)NCCN1Cc1cc2cc(C)cc(C)c2[nH]c1=O` (stereo not shown) [RU-0424520] returned an activation at 10 µM in test [1] of 8.81%. For the same molecule, the “RFU Score (10 μM)” value in test [2] is 532.
`Cc1noc(C(C)N(C)C(=O)c2[nH]cnc2-c2ccccc2)n1` (stereo not shown) [RU-0424521] came in with an activation at 10 µM in test [1] of 11.3%. Besides, the “RFU Score (10 μM)” value in test [2] is recorded as 604.
In test [1], `CO[C@H]1CC[C@@]2(OC)CCN(C(=O)c3[nH]cnc3-c3ccccc3)[C@H]2C1` [RU-0424522] had an activation at 10 µM of 6.21%. Further, the “RFU Score (10 μM)” value in test [2] was found to be 458.
The matching figures for `O=C(c1[nH]cnc1-c1ccccc1)N1CCC(Oc2ccccc2)C1` (stereo not shown) [RU-0424523]: 4.84% and 419.
`O=C(c1[nH]cnc1-c1ccccc1)N(Cc1cocn1)Cc1cocn1` [RU-0424524] came in with an activation at 10 µM in test [1] of 9.42%. In addition, the “RFU Score (10 μM)” value in test [2] is recorded as 549.
The matching figures for `Cc1cc(C)c2[nH]c(=O)c(CN3CCN(Cc4noc(C)n4)CC3)cc2c1` [RU-0424525]: 9.94% and 563.
The matching figures for `CCn1nc(C(=O)O)c2c1CCN(C(=O)c1[nH]cnc1-c1ccccc1)C2` [RU-0424526]: 9.28% and 545.
As to `CN(C)C1=NC2(CCN(C(=O)c3[nH]cnc3-c3ccccc3)CC2)C(=O)N1` [RU-0424527], in test [1], the activation at 10 µM was 10.5%. For the same molecule, in test [2], the “RFU Score (10 μM)” value is given as 575.
As for `CO[C@@]12CC[C@H](O)C[C@@H]1N(Cc1cc3cc(C)cc(C)c3[nH]c1=O)CC2` [RU-0424528], the activation at 10 µM in test [1] was determined as 9.03%. In addition, the “RFU Score (10 μM)” value in test [2] came to 538.
The matching figures for `CN(CC1COCCO1)C(=O)c1ccc(-c2[nH]cnc2-c2ccccc2)cc1` (stereo not shown) [RU-0424529]: 7.85% and 504.
The matching figures for `Cc1cc(C)c2[nH]c(=O)c(CN3CCCC[C@H](N(C)C)C3)cc2c1` [RU-0424530]: 8.55% and 524.
The matching figures for `O=C(c1[nH]cnc1-c1ccccc1)N1CCOC(c2ccc(F)cc2)C1` (stereo not shown) [RU-0424531]: 6.93% and 478.
As for `Cc1cc(C)c2[nH]c(=O)c(CN(C)Cc3ncccc3C)cc2c1` [RU-0424532], in test [1], the activation at 10 µM stood at 12.2%. For the same molecule, in test [2], the “RFU Score (10 μM)” value is reported as 627.
The matching figures for `O=C(NCc1nnc2ccccn12)c1[nH]cnc1-c1ccccc1` [RU-0424533]: 11.5% and 607.
